What was measured:
Test in all cases: fitness (endpoint OD595 vs no drug) (fraction); higher = more growth
B. subtilis 168 = system: B. subtilis 168
Method in brief: (§1)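 At 37 °C, bacteria in TSB, LB Lennox or CY were grown in 384-well plates from a starting OD595 of 0.01. OD595 was measured every 30 min for 14 h, with the first reading used as background. Fitness is the optical density at the switch to stationary phase as a fraction of the robust mean of no-drug control wells, capped at 1.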

S. pneumoniae D39V = system: S. pneumoniae D39V
Method in brief: as §1

S. aureus Newman = system: S. aureus Newman
Method in brief: as §1
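Note: OD595 on entry to stationary phase over no-drug wells; at most 1.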

C[C@H]1c2cccc(O)c2C(=O)C2=C(O)[C@]3(O)C(=O)C(C(N)=O)=C(O)[C@@H](N(C)C)[C@@H]3[C@@H](O)[C@@H]21 [Doxycycline] + CC1=C(C(=O)O)N2C(=O)[C@@H](NC(=O)[C@H](N)c3ccccc3)[C@H]2SC1 [Cephalexin]
Conditions	fitness
B. subtilis 168, first compound 0.02 µg/mL, partner 0.125 µg/mL	0.834
B. subtilis 168, first compound 0.02 µg/mL, partner 0.25 µg/mL	0.871
B. subtilis 168, first compound 0.02 µg/mL, partner 0.5 µg/mL	0.907
B. subtilis 168, first compound 0.04 µg/mL, partner 0.125 µg/mL	0.702
B. subtilis 168, first compound 0.04 µg/mL, partner 0.25 µg/mL	0.771
B. subtilis 168, first compound 0.04 µg/mL, partner 0.5 µg/mL	0.711
B. subtilis 168, first compound 0.08 µg/mL, partner 0.125 µg/mL	0.413
B. subtilis 168, first compound 0.08 µg/mL, partner 0.25 µg/mL	0.375
S. pneumoniae D39V, first compound 0.0155 µg/mL, partner 1 µg/mL	0.873
S. pneumoniae D39V, first compound 0.0155 µg/mL, partner 2 µg/mL	0.474
S. pneumoniae D39V, first compound 0.0155 µg/mL, partner 4 µg/mL	0.0211

fitness, one replicate
Conditions	partner 0.125 µg/mL	partner 0.25 µg/mL	partner 0.5 µg/mL	partner 1 µg/mL	partner 2 µg/mL	partner 4 µg/mL
B. subtilis 168, first compound 0.02 µg/mL	–	–	–	≥ 1	–	–
B. subtilis 168, first compound 0.04 µg/mL	–	–	–	0.84	–	–
B. subtilis 168, first compound 0.08 µg/mL	–	–	–	0.793	–	–
S. pneumoniae D39V, first compound 0.003875 µg/mL	–	–	–	0.601	0.0976	0.0088
S. pneumoniae D39V, first compound 0.00775 µg/mL	–	–	–	0.722	0.186	0.0118
S. pneumoniae D39V, first compound 0.0155 µg/mL	0.902	0.867	0.879	–	–	–
S. pneumoniae D39V, first compound 0.031 µg/mL	0.916	0.885	0.887	0.756	0.634	0.0444
S. pneumoniae D39V, first compound 0.062 µg/mL	0.807	0.808	0.809	0.667	0.51	0.0551

C[C@H]1c2cccc(O)c2C(=O)C2=C(O)[C@]3(O)C(=O)C(C(N)=O)=C(O)[C@@H](N(C)C)[C@@H]3[C@@H](O)[C@@H]21 [Doxycycline] + COc1cccc2c1C(=O)c1c(O)c3c(c(O)c1C2=O)C[C@@](O)(C(=O)CO)C[C@@H]3O[C@H]1C[C@H](N)[C@H](O)[C@H](C)O1 [Doxorubicin]
fitness
Conditions	partner 0.25 µg/mL	partner 0.5 µg/mL	partner 0.625 µg/mL	partner 1 µg/mL	partner 1.25 µg/mL	partner 2.5 µg/mL
B. subtilis 168, first compound 0.02 µg/mL	–	–	0.915	–	0.854	0.695
B. subtilis 168, first compound 0.04 µg/mL	–	–	0.722	–	0.712	0.58
S. pneumoniae D39V, first compound 0.0155 µg/mL	0.833	0.826	–	0.814	–	–

fitness, S. pneumoniae D39V, one replicate
Conditions	partner 0.25 µg/mL	partner 0.5 µg/mL	partner 1 µg/mL
first compound 0.003875 µg/mL	0.916	0.914	0.887
first compound 0.00775 µg/mL	0.885	0.891	0.848

C[C@@H]1O[C@@H]1P(=O)(O)O [Fosfomycin] + CC1(C)S[C@@H]2[C@H](NC(=O)Cc3ccccc3)C(=O)N2[C@H]1C(=O)O [Penicillin G]
fitness, S. aureus Newman
Conditions	first compound 0.781 µg/mL	first compound 1.562 µg/mL	first compound 3.124 µg/mL
partner 0.0195 µg/mL	0.582	0.498	0.167
partner 0.039 µg/mL	0.583	0.516	0.171
partner 0.078 µg/mL	0.54	0.508	0.153

Cc1ncc([N+](=O)[O-])n1CCO [Metronidazole] + CC1(C)S[C@@H]2[C@H](NC(=O)Cc3ccccc3)C(=O)N2[C@H]1C(=O)O [Penicillin G]
fitness, S. aureus Newman
Conditions	first compound 0.625 µg/mL	first compound 0.781 µg/mL	first compound 1.25 µg/mL	first compound 1.562 µg/mL	first compound 2.5 µg/mL	first compound 3.124 µg/mL
partner 0.0195 µg/mL	0.924	0.836	0.799	0.85	0.826	0.829
partner 0.039 µg/mL	0.9	0.975	0.882	0.932	0.913	0.947
partner 0.078 µg/mL	0.812	0.982	0.858	0.959	0.807	0.946

CC1(C)S[C@@H]2[C@H](NC(=O)Cc3ccccc3)C(=O)N2[C@H]1C(=O)O [Penicillin G] + CC1=C\[C@@H](O)CC(=O)Cc2nc(co2)C(=O)N2CCC=C2C(=O)O[C@H](C(C)C)[C@H](C)/C=C/C(=O)NC\C=C\1 [Virginiamycin M1]
fitness, S. aureus Newman
Conditions	first compound 0.0195 µg/mL	first compound 0.039 µg/mL	first compound 0.078 µg/mL
partner 0.0625 µg/mL	0.896	0.929	0.917
partner 0.125 µg/mL	0.935	0.924	0.955
partner 0.25 µg/mL	0.914	0.913	0.925

fitness, S. aureus Newman, one replicate
Conditions	first compound 0.0195 µg/mL	first compound 0.039 µg/mL	first compound 0.078 µg/mL
partner 0.5 µg/mL	0.834	0.766	0.788
partner 1 µg/mL	0.916	0.877	0.856
partner 2 µg/mL	0.807	0.741	0.717

CC1(C)S[C@@H]2[C@H](NC(=O)Cc3ccccc3)C(=O)N2[C@H]1C(=O)O [Penicillin G] + CCCCCCCCCC(=O)N[C@@H]1[C@H]([C@@H]([C@H](O[C@H]1OC2=C3C=C4C=C2OC5=C(C=C(C=C5)[C@H]([C@H]6C(=O)N[C@@H](C7=C(C(=CC(=C7)O)OC8[C@H]([C@H]([C@@H]([C@H](O8)CO)O)O)O)C9=C(C=CC(=C9)[C@H](C(=O)N6)NC(=O)[C@@H]4NC(=O)[C@@H]1C2=CC(=CC(=C2)OC2=C(C=CC(=C2)[C@H](C(=O)N[C@H](CC2=CC(=C(O3)C=C2)Cl)C(=O)N1)N)O)O)O)C(=O)O)O[C@H]1[C@@H]([C@H]([C@@H]([C@H](O1)CO)O)O)NC(=O)C)Cl)CO)O)O [Teicoplanin]
fitness, S. aureus Newman, main component drawn
Conditions	first compound 0.0195 µg/mL	first compound 0.039 µg/mL	first compound 0.078 µg/mL
partner 0.1562 µg/mL	0.983	≥ 1	≥ 1
partner 0.3125 µg/mL	0.955	0.924	0.921
partner 0.625 µg/mL	0.803	0.824	0.776

fitness, S. aureus Newman, one replicate, main component drawn
Conditions	first compound 0.0195 µg/mL	first compound 0.039 µg/mL	first compound 0.078 µg/mL
partner 0.62 µg/mL	0.697	0.741	0.715
partner 1.24 µg/mL	0.702	0.732	0.711
partner 2.48 µg/mL	0.377	0.393	0.284

CC1(C)S[C@@H]2[C@H](NC(=O)Cc3ccccc3)C(=O)N2[C@H]1C(=O)O [Penicillin G] + CCN(CC)CCOC(=O)c1ccc(N)cc1 [Procaine]
fitness, S. aureus Newman
Conditions	first compound 0.0195 µg/mL	first compound 0.039 µg/mL	first compound 0.078 µg/mL
partner 85.5 µg/mL	0.899	0.943	0.947
partner 171 µg/mL	0.876	0.925	0.977
partner 342 µg/mL	0.876	0.914	0.952

CC1(C)S[C@@H]2[C@H](NC(=O)Cc3ccccc3)C(=O)N2[C@H]1C(=O)O [Penicillin G] + CN1C2=CC=CC=C2N=C3C1=CC=CC3=O [Pyocyanin]
fitness, S. aureus Newman
Conditions	first compound 0.0195 µg/mL	first compound 0.039 µg/mL	first compound 0.078 µg/mL
partner 1.25 µg/mL	0.807	0.831	0.801
partner 2.5 µg/mL	0.783	0.744	0.707
partner 5 µg/mL	0.434	0.334	0.302
